The results in this text go back to PubChem BioAssay (NCI).

Among the test systems are HCT-15 colon; HS 578T breast; MDA-MB-231 breast; MDA-N; MOLT-4 leukemia; NCI-H522 lung; NCI/ADR-RES ovarian; OVCAR-8 ovarian; SF-295 CNS; SK-MEL-5 melanoma; SK-OV-3 ovarian; SNB-19 CNS; SW-620 colon; UACC-62 melanoma; LOX IMVI melanoma.
What all share (assay): growth of human tumour cells (NCI), 48 h

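These data come from cells grown in 96-well plates and exposed to compound for 48 hours at five concentrations. TGI is the concentration that stops growth completely.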 A value given as a limit tells only on which side of the number the result lay.

As to `CN(C)CCCNC(=O)N/N=C/c1ccc(O)cc1`, the TGI in the assay with HCT-15 colon, in the assay on HS 578T breast, in the assay with MDA-MB-231 breast, in the assay on MDA-N, with MOLT-4 leukemia and in the assay with NCI-H522 lung was greater than 100 µM each time. The TGI with NCI/ADR-RES ovarian, with OVCAR-8 ovarian, with SF-295 CNS, in the assay on SK-MEL-5 melanoma, in the assay on SK-OV-3 ovarian and in the assay with SNB-19 CNS was greater than 100 µM each time. The TGI in the assay with SW-620 colon and with UACC-62 melanoma was greater than 100 µM in each case.

With `O=C(N/N=C(/COc1ccccc1)N=Cc1ccncc1)c1ccncc1`, the TGI in the assay on HCT-15 colon, in the assay with HS 578T breast, with LOX IMVI melanoma, in the assay with MDA-MB-231 breast, in the assay with MDA-N and with MOLT-4 leukemia was greater than 100 µM throughout. The TGI in the assay with NCI/ADR-RES ovarian, in the assay on OVCAR-8 ovarian, in the assay on SF-295 CNS, in the assay with SK-OV-3 ovarian, in the assay on SNB-19 CNS and in the assay on SW-620 colon was greater than 100 µM each time. The compound further registered a TGI in the assay on UACC-62 melanoma greater than 100 µM.

With `COC(CNC(=O)CNC(=O)c1ccc(C(F)(F)F)cc1)OC`, the TGI in the assay with HCT-15 colon, in the assay on HS 578T breast, in the assay on MDA-MB-231 breast, in the assay with MDA-N, in the assay with MOLT-4 leukemia and in the assay on NCI-H522 lung was greater than 100 µM in each case. Moreover, the TGI in the assay with NCI/ADR-RES ovarian, with OVCAR-8 ovarian, with SF-295 CNS, in the assay on SK-MEL-5 melanoma, in the assay with SK-OV-3 ovarian and in the assay on SNB-19 CNS was greater than 100 µM throughout. In addition, the TGI with SW-620 colon and with UACC-62 melanoma was greater than 100 µM in each case.

As for `CCOC(=O)Cc1c(C)c2ccc(OC(C)=O)c(OC(C)=O)c2oc1=O`, the TGI was greater than 100 µM in the assay with HCT-15 colon; greater than 100 µM in the assay with HS 578T breast; 73.9 µM with LOX IMVI melanoma; greater than 100 µM in the assay on MDA-MB-231 breast; greater than 100 µM with MDA-N; greater than 100 µM with MOLT-4 leukemia. In addition, the TGI with NCI/ADR-RES ovarian is 58.4 µM; in the assay with OVCAR-8 ovarian, 57.3 µM; in the assay with SF-295 CNS, greater than 100 µM; in the assay on SK-MEL-5 melanoma it was greater than 100 µM; in the assay with SK-OV-3 ovarian, greater than 100 µM; with SNB-19 CNS it was greater than 100 µM. Moreover, the figures for the TGI with SW-620 colon and in the assay with UACC-62 melanoma were greater than 100 µM and 90 µM, respectively.

In the case of `Cc1ccc(S(=O)(=O)N(CC(O)COc2ccccc2)c2c(F)c(F)cc(F)c2F)cc1` (configuration not stated), the TGI in the assay on HCT-15 colon is 52 µM; in the assay with HS 578T breast, 50.8 µM; with LOX IMVI melanoma, 37.6 µM; in the assay on MDA-MB-231 breast, 50.8 µM; with MDA-N it was 35.7 µM; with MOLT-4 leukemia it was 2.25 µM. Besides, the TGI turned out to be 42 µM with NCI/ADR-RES ovarian; 49.7 µM in the assay with OVCAR-8 ovarian; 62 µM in the assay on SF-295 CNS; 30.8 µM in the assay with SK-MEL-5 melanoma; 47.2 µM in the assay on SK-OV-3 ovarian; 82.1 µM in the assay with SNB-19 CNS. Besides, the TGI in the assay on SW-620 colon was found to be 85 µM; in the assay on UACC-62 melanoma, 37.5 µM.

As for `COc1ccc2[nH]c3cc4c(=O)c5cc(OC)ccc5[nH]c4cc3c(=O)c2c1`, the TGI in the assay with HCT-15 colon, with HS 578T breast, with MDA-MB-231 breast, in the assay with MDA-N, with MOLT-4 leukemia and in the assay with NCI-H522 lung was greater than 100 µM each time. Besides, the TGI with NCI/ADR-RES ovarian, in the assay with OVCAR-8 ovarian, in the assay on SF-295 CNS, in the assay with SK-MEL-5 melanoma, in the assay on SK-OV-3 ovarian and with SNB-19 CNS was greater than 100 µM in each case. Moreover, the TGI with SW-620 colon and with UACC-62 melanoma was greater than 100 µM each time.

As to `O=C1CC(c2ccc(Cl)cc2)C2(C(=O)NC(=S)NC2=O)C(c2ccc(Cl)cc2)C1` (configuration not stated), the TGI with HCT-15 colon was 52.8 µM; in the assay on HS 578T breast, 99.4 µM; in the assay on LOX IMVI melanoma it was greater than 100 µM; with MDA-MB-231 breast it was 46.8 µM; with MDA-N, 34.1 µM; in the assay on MOLT-4 leukemia, 89.5 µM. The TGI with NCI/ADR-RES ovarian was found to be 52 µM; in the assay on SF-295 CNS, 35.9 µM; in the assay on SK-MEL-5 melanoma, 33.1 µM; in the assay on SK-OV-3 ovarian, 29 µM; in the assay with SNB-19 CNS, 36.6 µM; with SW-620 colon, 44.7 µM. Moreover, the TGI in the assay on UACC-62 melanoma came to 34.4 µM.

As for `Cc1ccsc1/C=N/NC1=NCCN1`, the TGI in the assay on HCT-15 colon, in the assay with HS 578T breast, with LOX IMVI melanoma, in the assay on MDA-MB-231 breast, with MDA-N and with MOLT-4 leukemia was greater than 100 µM each time. Moreover, the TGI in the assay on NCI/ADR-RES ovarian, with OVCAR-8 ovarian, with SF-295 CNS, with SK-MEL-5 melanoma, in the assay on SK-OV-3 ovarian and in the assay on SNB-19 CNS was greater than 100 µM in each case. For the same compound, the TGI with SW-620 colon and in the assay on UACC-62 melanoma was greater than 100 µM in each case.

Turning to `COc1ccccc1-n1cnc2c1NC(C)(C)N=C2C(N)=O`, the TGI in the assay with HCT-15 colon, in the assay on HS 578T breast, with LOX IMVI melanoma, in the assay with MDA-MB-231 breast, in the assay on MDA-N and in the assay with NCI-H522 lung was greater than 100 µM each time. Also, the TGI with NCI/ADR-RES ovarian, in the assay on OVCAR-8 ovarian, in the assay with SF-295 CNS, in the assay with SK-MEL-5 melanoma, with SK-OV-3 ovarian and with SNB-19 CNS was greater than 100 µM each time. Moreover, the TGI with SW-620 colon and in the assay with UACC-62 melanoma was greater than 100 µM in each case.

Regarding `COC(=O)[C@H](CNC(=O)/C=C/c1ccc(OC(C)=O)c(OC(C)=O)c1)NC(=O)/C=C/c1ccc(OC(C)=O)c(OC(C)=O)c1`, the TGI in the assay on HCT-15 colon, with HS 578T breast, with LOX IMVI melanoma, with MDA-MB-231 breast, with MDA-N and with MOLT-4 leukemia was greater than 100 µM throughout. Besides, the TGI in the assay on NCI/ADR-RES ovarian, in the assay on OVCAR-8 ovarian, with SK-MEL-5 melanoma, in the assay with SK-OV-3 ovarian, in the assay on SNB-19 CNS and in the assay with SW-620 colon was greater than 100 µM throughout. In the assay with UACC-62 melanoma, this compound had a TGI greater than 100 µM.
